According to patent US9273057B2 (Bristol-Myers Squibb Company, priority 2012, dated 2016):
Structures can show the parent of a compound that is named as a salt.

These compounds were tested against CK2A1 (CK2α/β) (Homo sapiens, UniProt P68400) (assay: CK2 kinase assay, CK2A1 (CK2α/β)). Details: Table A; read-out: CK2A1 (CK2α/β) (IC50).
Format: biochemical

Sequence of CK2A1 (CK2α/β) (P68400 whole entry, species assumed): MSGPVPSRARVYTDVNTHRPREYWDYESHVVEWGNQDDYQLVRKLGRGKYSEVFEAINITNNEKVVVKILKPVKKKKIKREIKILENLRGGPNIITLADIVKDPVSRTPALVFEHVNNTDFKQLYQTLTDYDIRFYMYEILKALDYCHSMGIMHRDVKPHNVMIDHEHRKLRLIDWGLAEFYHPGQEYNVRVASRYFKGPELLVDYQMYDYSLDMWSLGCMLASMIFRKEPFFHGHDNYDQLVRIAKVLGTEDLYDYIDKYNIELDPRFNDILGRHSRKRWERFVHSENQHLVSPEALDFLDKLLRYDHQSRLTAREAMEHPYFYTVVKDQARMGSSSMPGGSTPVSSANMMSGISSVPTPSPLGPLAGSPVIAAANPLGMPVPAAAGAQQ
Sequence of CK2A1 (CK2α/β) (P67870 whole entry partner, species assumed): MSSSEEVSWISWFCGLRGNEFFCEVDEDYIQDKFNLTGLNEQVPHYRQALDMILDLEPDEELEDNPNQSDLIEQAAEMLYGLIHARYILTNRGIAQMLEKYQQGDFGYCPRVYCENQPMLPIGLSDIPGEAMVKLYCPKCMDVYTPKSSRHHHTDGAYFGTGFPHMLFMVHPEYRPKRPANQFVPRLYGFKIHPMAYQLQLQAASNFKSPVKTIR

Compound	IC50
N#Cc1cc(Nc2nc(NC3CC3)c3ncc(C#N)n3n2)c(Cl)c(N2CCN(C3(CCO)COC3)CC2)c1 [Example 537, 2-((2-chloro-5-cyano-3-(4-(3-(2-hydroxyethyl)oxetan-3-yl)piperazin-1-yl)phenyl)amino)-4-(cyclopropylamino)imidazo[2,1-f][1,2,4]triazine-7-carbonitrile]	1.04 nM
CN1CCC2(CCN(c3cc(C#N)cc(Nc4nc(NC5CC5)c5ncc(C#N)n5n4)c3Cl)CC2)C1 (racemic) [Example 27, (+/−) 2-((2-chloro-5-cyano-3-(2-methyl-2,8-diazaspiro[4.5]dec-8-yl)phenyl)amino)-4-(cyclopropylamino)imidazo [2,1-f][1,2,4]triazine-7-carbonitrile]	0.87 nM
CCNc1nc(Nc2cc(C#N)cc(N3CC[C@@H](NC(=O)OC)[C@H](OC(=O)C(C)OP(=O)(O)O)C3)c2Cl)nn2c(C#N)cnc12 (mixture of isomers) [Example 339, (+/−)-(3R,4R)-1-(2-chloro-5-cyano-3-((7-cyano-4-(ethylamino)imidazo[2,1-f][1,2,4]triazin-2-yl)amino)phenyl)-4-((methoxycarbonyl)amino)piperidin-3-yl 2-(phosphonooxy)propanoate]	0.47 nM
N#Cc1cc(Nc2nc(NC3CC3)c3ncc(C#N)n3n2)c(Cl)c(N2CCC(N[C@H]3COC[C@@H]3O)CC2)c1 (racemic) [Example 135, (+/−) 2-((2-chloro-5-cyano-3-(4-(((3S,4R)-4-hydroxytetrahydro-3-furanyl)amino)-1-piperidinyl)phenyl)amino)-4-(cyclopropylamino)imidazo [2,1-f][1,2,4]triazine-7-carbonitrile]	0.68 nM
CC(C)(CO)N1CCC(c2cc(C#N)cc(Nc3nc(NC4CC4)c4ncc(C#N)n4n3)c2Cl)CC1 [Example 643, 2-((2-chloro-5-cyano-3-(1-(1-hydroxy-2-methylpropan-2-yl)piperidin-4-yl)phenyl)amino)-4-(cyclopropylamino)imidazo[2,1-f][1,2,4]triazine-7-carbonitrile]	2.12 nM
COCCN1CCC(c2cc(C#N)cc(Nc3nc(NC4CC4)c4ncc(C#N)n4n3)c2Cl)CC1 [Example 211, 2-(2-chloro-5-cyano-3-(1-(2-methoxyethyl)piperidin-4-yl)phenylamino)-4-(cyclopropylamino)imidazo[1,2-f][1,2,4]triazine-7-carbonitrile]	0.9 nM
CCNc1nc(Nc2cc(C#N)cc(N3CC[C@@H](NC(=O)OC)[C@H](OC(=O)[C@H](N)CC(N)=O)C3)c2Cl)nn2c(C#N)cnc12 [Example 818, (R)-(3R,4R)-1-(2-chloro-5-cyano-3-((7-cyano-4-(ethylamino)imidazo[2,1-f][1,2,4]triazin-2-yl)amino)phenyl)-4-((methoxycarbonyl)amino)piperidin-3-yl 2,4-diamino-4-oxobutanoate hydrochloride]	2.49 nM
CCNc1nc(Nc2cc(C#N)cc(N3CC[C@@H](NC(=O)OCCOCCOCCOCCOCCOCCOC)[C@H](O)C3)c2Cl)nn2c(C#N)cnc12 [Example 376, 2,5,8,11,14,17-hexaoxanonadecan-19-yl((3R,4R)-1-(2-chloro-5-cyano-3-((7-cyano-4-(ethylamino)imidazo[2,1-f][1,2,4]triazin-2-yl)amino)phenyl)-3-hydroxypiperidin-4-yl)carbamate]	0.83 nM
CCNc1nc(Nc2cc(C#N)cc(N3CC[C@@H](NC(=O)OC)[C@@H](N(C)C4COC4)C3)c2Cl)nn2c(C#N)cnc12 [Example 751, methyl ((3S,4R)-1-(2-chloro-5-cyano-3-((7-cyano-4-(ethylamino)imidazo[2,1-f][1,2,4]triazin-2-yl)amino)phenyl)-3-(methyl(oxetan-3-yl)amino)piperidin-4-yl)carbamate]	1.3 nM
N#Cc1cc(Nc2nc(NC3CC3)c3ncc(C#N)n3n2)c(Cl)c(N2C[C@@H]3CCCN(C4COC4)[C@@H]3C2)c1 [Example 778, 2-((2-chloro-5-cyano-3-((4aS,7aS)-1-(oxetan-3-yl)hexahydro-1H-pyrrolo[3,4-b]pyridin-6(2H)-yl)phenyl)amino)-4-(cyclopropylamino)imidazo[2,1-f][1,2,4]triazine-7-carbonitrile]	1.09 nM
CCNc1nc(Nc2cc(C#N)cc(N3CC[C@@H](NC(=O)OC)[C@H](OC(=O)[C@@H]4CCCN4)C3)c2Cl)nn2c(C#N)cnc12 [Example 813, (S)-(3R,4R)-1-(2-chloro-5-cyano-3-((7-cyano-4-(ethylamino)imidazo[2,1-f][1,2,4]triazin-2-yl)amino)phenyl)-4-((methoxycarbonyl)amino)piperidin-3-yl pyrrolidine-2-carboxylate hydrochloride]	4.48 nM
N#Cc1cc(Nc2nc(NC3CC3)c3ncc(C#N)n3n2)c(Cl)c(N2CCC(NCC(O)C(F)(F)F)CC2)c1 (racemic) [Example 139, (+/−) 2-((2-chloro-5-cyano-3-(4-((3,3,3-trifluoro-2-hydroxypropyl)amino)-1-piperidinyl)phenyl)amino)-4-(cyclopropylamino)imidazo [2,1-f][1,2,4]triazine-7-carbonitrile]	0.45 nM
CCNc1nc(Nc2cc(C#N)cc(N3CC[C@@H](NC(=O)OC)[C@H](NC4COC4)C3)c2Cl)nn2c(C#N)cnc12 [Example 746, methyl ((3R,4R)-1-(2-chloro-5-cyano-3-((7-cyano-4-(ethylamino)imidazo[2,1-f][1,2,4]triazin-2-yl)amino)phenyl)-3-(oxetan-3-ylamino)piperidin-4-yl)carbamate]	1.36 nM
N#Cc1cc(Nc2nc(NC3CC3)c3ncc(C#N)n3n2)c(F)c(N2CCN(C3CCOC3)CC2)c1 (centres unmarked) [Example 554, 2-((5-cyano-2-fluoro-3-(4-(tetrahydrofuran-3-yl)piperazin-1-yl)phenyl)amino)-4-(cyclopropylamino)imidazo[2,1-f][1,2,4]triazine-7-carbonitrile]	5.03 nM
COC(=O)N[C@H]1CCN(c2cc(C#N)cc(Nc3nc(NC4CC4)c4ncc(C#N)n4n3)c2Cl)CC1N[C@@H](C)C(N)=O (stereo partly drawn) [Example 753, methyl N-[(4S)-3-{[(1S)-1-carbamoylethyl]amino}-1-(2-chloro-5-cyano-3-{[7-cyano-4-(cyclopropylamino)imidazo [2,1-f][1,2,4]triazin-2-yl]amino}phenyl)piperidin-4-yl]carbamate]	2.46 nM
N#Cc1cc(Nc2nc(NC3CC3)c3ncc(C#N)n3n2)c(Cl)cc1CCCN1CC(O)C1 [Example 569, 2-((2-chloro-5-cyano-4-(3-(3-hydroxyazetidin-1-yl)propyl)phenyl)amino)-4-(cyclopropylamino)imidazo[2,1-f][1,2,4]triazine-7-carbonitrile]	0.7 nM

Results, then the compound that gave them:

IC50	Compound
0.83 nM	N#Cc1cc(Nc2nc(NC3CC3)c3ncc(C#N)n3n2)c(Cl)c(N2CCCOC2=O)c1 [Example 627, 2-((2-chloro-5-cyano-3-(2-oxo-1,3-oxazinan-3-yl)phenyl)amino)-4-(cyclopropylamino)imidazo[2,1-f][1,2,4]triazine-7-carbonitrile]
1.83 nM	N#Cc1cc(Nc2nc(NC3CC3)c3ncc(C#N)n3n2)c(Cl)c(N2CCN(CCO)CC2)c1 [Example 590, 2-({2-chloro-5-cyano-3-[4-(2-hydroxyethyl)piperazin-1-yl]phenyl}amino)-4-(cyclopropylamino)imidazo [2,1-f][1,2,4]triazine-7-carbonitrile]
1.52 nM	COC(=O)NN1CCN(c2cc(C#N)cc(Nc3nc(NC4CC4)c4ncc(C#N)n4n3)c2Cl)CC1 [Example 790, methyl (4-(2-chloro-5-cyano-3-((7-cyano-4-(cyclopropylamino)imidazo[2,1-f][1,2,4]triazin-2-yl)amino)phenyl)piperazin-1-yl)carbamate]
0.68 nM	CN1CCC2(CC1)CN(c1cc(C#N)cc(Nc3nc(NC4CC4)c4ncc(C#N)n4n3)c1Cl)C2 [Example 22, 2-((2-chloro-5-cyano-3-(7-methyl-2,7-diazaspiro[3.5]non-2-yl)phenyl)amino)-4-(cyclopropylamino)imidazo [2,1-f][1,2,4]triazine-7-carbonitrile]
2.94 nM	CC(O)CN1CCN(c2cc(C#N)cc(Nc3nc(NC4CC4)c4ncc(C#N)n4n3)c2Cl)C(=O)C1 (racemic) [Example 624, (+/−)-2-((2-chloro-5-cyano-3-(4-(2-hydroxypropyl)-2-oxopiperazin-1-yl)phenyl)amino)-4-(cyclopropylamino)imidazo[2,1-f][1,2,4]triazine-7-carbonitrile]
1.03 nM	CN1CCC2(CC1)CCN(c1cc(C#N)cc(Nc3nc(NC4CC4)c4ncc(C#N)n4n3)c1Cl)C2 (racemic) [Example 26, (+/−) 2-((2-chloro-5-cyano-3-(8-methyl-2,8-diazaspiro[4.5]dec-2-yl)phenyl)amino)-4-(cyclopropylamino)imidazo [2,1-f][1,2,4]triazine-7-carbonitrile]
1.8 nM	CN1CC2(CCN(c3cc(C#N)cc(Nc4nc(NC5CC5)c5ncc(C#N)n5n4)c3Cl)CC2)C1 [Example 798, 2-((2-chloro-5-cyano-3-(2-methyl-2,7-diazaspiro[3.5]nonan-7-yl)phenyl)amino)-4-(cyclopropylamino)imidazo[2,1-f][1,2,4]triazine-7-carbonitrile]
0.31 nM	CN1CCCN(C2CN(c3cc(C#N)cc(Nc4nc(NC5CC5)c5ncc(C#N)n5n4)c3Cl)C2)CC1 [Example 29, 2-((2-chloro-5-cyano-3-(3-(4-methyl-1,4-diazepan-1-yl)-1-azetidinyl)phenyl)amino)-4-(cyclopropylamino)imidazo [2,1-f][1,2,4]triazine-7-carbonitrile]
4.4 nM	COC(=O)NC1CCN(c2cc(C#N)cc(Nc3nc(NC4CC4)c4ncc(C#N)n4n3)c2Cl)CC1(C)C (centres unmarked) [Example 286, methyl (1-(2-chloro-5-cyano-3-((7-cyano-4-(cyclopropylamino)imidazo[2,1-f][1,2,4]triazin-2-yl)amino)phenyl)-3,3-dimethyl-4-piperidinyl)carbamate]
2.9 nM	CS(=O)(=O)CC(=O)N1CCN(c2cc(C#N)cc(Nc3nc(NC4CC4)c4ncc(C#N)n4n3)c2Cl)CC1 [Example 89, 2-((2-chloro-5-cyano-3-(4-((methylsulfonyl)acetyl)-1-piperazinyl)phenyl)amino)-4-(cyclopropylamino) imidazo[2,1-f][1,2,4] triazine-7-carbonitrile]
